Some test systems named below: HOP-92; RXF 393; UACC-62; NCI-H460; UACC-257; OVCAR-5; TK-10; SK-MEL-2; SNB-19; SF-268; CAKI-1; A498; SR; NCI/ADR-RES; BT-549; HCT-15; OVCAR-8; PC-3; HCC 2998; K562.
What all share (experiment): growth of human tumour cells (NCI), 48 h

The structures appear in SMILES notation.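 Briefly, cells in 96-well plates were exposed to five compound concentrations for 48 h, and endpoints were estimated by linear interpolation. GI50: concentration for 50% inhibition of growth.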 Active and inactive are the calls of the source. Rule as the data show it: active = GI50 up to about 1.1 µM and inactive = higher. Where only a bound is given, the exact number is not on record here.

Consider `C[C@]12CC[C@H]3[C@@H](CC[C@]4(O)C[C@@H](O)CC[C@]34CO)[C@@]1(O)CC[C@@H]2C1=CC(=O)OC1` [STROPHANTHIDOL], for which the GI50 is 2.78 µM (inactive) in the experiment with HOP-92; 0.223 µM (active) in the experiment on RXF 393; 3.52 µM (inactive) in the experiment with UACC-62; 0.431 µM (active) in the experiment on NCI-H460; 2.99 µM (inactive) in the experiment with UACC-257; 3.07 µM (inactive) with OVCAR-5. Moreover, the GI50 is 1.52 µM (inactive) in the experiment with TK-10; 2.5 µM (inactive) in the experiment with SK-MEL-2; 5.94 µM (inactive) with SNB-19; 0.982 µM (active) in the experiment on SF-268; 0.494 µM (active) in the experiment with CAKI-1; 1.61 µM (inactive) with A498. Moreover, the GI50 in the experiment with SR was 0.861 µM (active); with NCI/ADR-RES, 1.51 µM (inactive); in the experiment on BT-549, 1.51 µM (inactive); with HCT-15, 2 µM; in the experiment with OVCAR-8, 1.77 µM (inactive); in the experiment on PC-3, 2 µM (inactive). For the same compound, the figures for the GI50 in the experiment on HCC 2998 and with K562 were 22.9 µM (inactive) and 2.21 µM (inactive), respectively.
For the compound `COC(=O)C1CCC(=S)N1C(=O)OCc1ccccc1` (stereo not given), the GI50 with HOP-92 is > 100 µM (inactive); in the experiment on RXF 393 it was 28.4 µM (inactive); in the experiment with UACC-62 it was > 100 µM (inactive); in the experiment on NCI-H460, 39.5 µM (inactive); in the experiment with UACC-257 it was 66.4 µM (inactive); in the experiment with OVCAR-5, > 100 µM (inactive). For the same compound, the GI50 in the experiment with TK-10 was > 100 µM (inactive); with SK-MEL-2, > 100 µM (inactive); in the experiment with SNB-19, > 100 µM (inactive); with SF-268, 98.6 µM (inactive); with CAKI-1 it was > 100 µM (inactive); in the experiment with A498 it was > 100 µM (inactive). Also, the GI50 in the experiment on SR was > 100 µM (inactive); in the experiment on NCI/ADR-RES, > 100 µM (inactive); in the experiment with BT-549 it was > 100 µM (inactive); in the experiment on HCT-15, 92.7 µM; with OVCAR-8, > 100 µM (inactive); in the experiment with PC-3, > 100 µM (inactive). Further, the GI50 in the experiment with HCC 2998 is 62.1 µM (inactive); with K562, > 100 µM (inactive).
Take `Clc1nc(NC23CC4CC(CC(C4)C2)C3)nc(NC23CC4CC(CC(C4)C2)C3)n1`: the GI50 with HOP-92 was 17.3 µM (inactive); in the experiment with RXF 393, 17.9 µM (inactive); in the experiment on UACC-62, > 100 µM (inactive); in the experiment on NCI-H460, 61 µM (inactive); in the experiment on UACC-257, 50.7 µM (inactive); in the experiment with OVCAR-5, > 100 µM (inactive). Also, the GI50 is > 100 µM (inactive) with TK-10; 19.3 µM (inactive) with SK-MEL-2; > 100 µM (inactive) in the experiment with SNB-19; > 83.4 µM (inactive) in the experiment with SF-268; > 100 µM (inactive) with CAKI-1; > 100 µM (inactive) in the experiment on A498. Also, the GI50 is 29 µM (inactive) in the experiment on SR; 46 µM (inactive) in the experiment with NCI/ADR-RES; > 61.4 µM (inactive) in the experiment with BT-549; 34.7 µM in the experiment with HCT-15; 70.1 µM (inactive) with OVCAR-8; 1.41 µM (inactive) with PC-3. In addition, the results for the GI50 in the experiment on HCC 2998 and in the experiment with K562 were 53.5 µM (inactive) and 4.62 µM (inactive), respectively.
In the case of `COc1cc(=O)n2c3ccccc3n(C)c2c1C#N`, the GI50 in the experiment with HOP-92, in the experiment with RXF 393, in the experiment on UACC-62, in the experiment on NCI-H460, in the experiment with UACC-257 and in the experiment on OVCAR-5 was > 100 µM (inactive) each time. Moreover, the GI50 in the experiment on TK-10, with SK-MEL-2, in the experiment on SNB-19, in the experiment on SF-268, in the experiment with CAKI-1 and in the experiment on A498 was > 100 µM (inactive) in each case. Besides, the GI50 with SR was > 100 µM (inactive); with NCI/ADR-RES it was > 100 µM (inactive); in the experiment with BT-549, > 100 µM (inactive); in the experiment on HCT-15 it was greater than 100 µM; in the experiment on OVCAR-8, > 100 µM (inactive); in the experiment on PC-3, > 100 µM (inactive). Moreover, the GI50 with HCC 2998 and in the experiment on K562 was > 100 µM (inactive) each time.
